Measured values from ChEMBL document CHEMBL5465560, “Selectivity Literature for EUbOPEN Chemogenomic Library” (2024).

What was measured:
[1] = target: T1, STE20-related kinase adapter protein alpha (Homo sapiens) (UniProt Q7RTN6); assay: Selectivity interaction (Kinase panel (KiNativ target engagement assay in Jurkat cells)) EUB0001635a STRADA; assay type: cell-based; settings: Selectivity number of off-targets 0.0, Selectivity number of targets 233.0, Source Knowledge https://www.sciencedirect.com/science/article/pii/S2451945619300674?via%3Dihub, at 1 µM
T1 sequence (whole entry): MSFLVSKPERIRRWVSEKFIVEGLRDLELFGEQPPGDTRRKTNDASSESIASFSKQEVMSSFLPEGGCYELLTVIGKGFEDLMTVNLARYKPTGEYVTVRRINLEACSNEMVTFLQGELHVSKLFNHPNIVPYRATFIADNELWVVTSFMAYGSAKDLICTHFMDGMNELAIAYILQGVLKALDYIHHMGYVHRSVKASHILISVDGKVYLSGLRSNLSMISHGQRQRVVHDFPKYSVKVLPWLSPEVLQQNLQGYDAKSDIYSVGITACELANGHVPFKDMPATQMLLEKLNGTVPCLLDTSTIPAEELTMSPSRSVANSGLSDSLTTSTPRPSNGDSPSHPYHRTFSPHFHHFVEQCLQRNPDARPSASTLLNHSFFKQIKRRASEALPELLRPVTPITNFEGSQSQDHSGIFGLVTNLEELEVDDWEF

[2] = target: Tyrosine-protein kinase SYK (Homo sapiens, UniProt P43405); assay: Selectivity interaction (ActivX KiNativ screen (kinase selectivity in THP-1 cell lysates)) EUB0000639a SYK; assay type: subcellular; settings: lysate, at 5 µM
[3] = target: Non-receptor tyrosine-protein kinase TYK2 (Homo sapiens, UniProt P29597); assay: Selectivity interaction (KinomeScan (DiscoverX)) EUB0001049a TYK2; settings: at 1 µM
Chain of Non-receptor tyrosine-protein kinase TYK2 (P29597 whole entry): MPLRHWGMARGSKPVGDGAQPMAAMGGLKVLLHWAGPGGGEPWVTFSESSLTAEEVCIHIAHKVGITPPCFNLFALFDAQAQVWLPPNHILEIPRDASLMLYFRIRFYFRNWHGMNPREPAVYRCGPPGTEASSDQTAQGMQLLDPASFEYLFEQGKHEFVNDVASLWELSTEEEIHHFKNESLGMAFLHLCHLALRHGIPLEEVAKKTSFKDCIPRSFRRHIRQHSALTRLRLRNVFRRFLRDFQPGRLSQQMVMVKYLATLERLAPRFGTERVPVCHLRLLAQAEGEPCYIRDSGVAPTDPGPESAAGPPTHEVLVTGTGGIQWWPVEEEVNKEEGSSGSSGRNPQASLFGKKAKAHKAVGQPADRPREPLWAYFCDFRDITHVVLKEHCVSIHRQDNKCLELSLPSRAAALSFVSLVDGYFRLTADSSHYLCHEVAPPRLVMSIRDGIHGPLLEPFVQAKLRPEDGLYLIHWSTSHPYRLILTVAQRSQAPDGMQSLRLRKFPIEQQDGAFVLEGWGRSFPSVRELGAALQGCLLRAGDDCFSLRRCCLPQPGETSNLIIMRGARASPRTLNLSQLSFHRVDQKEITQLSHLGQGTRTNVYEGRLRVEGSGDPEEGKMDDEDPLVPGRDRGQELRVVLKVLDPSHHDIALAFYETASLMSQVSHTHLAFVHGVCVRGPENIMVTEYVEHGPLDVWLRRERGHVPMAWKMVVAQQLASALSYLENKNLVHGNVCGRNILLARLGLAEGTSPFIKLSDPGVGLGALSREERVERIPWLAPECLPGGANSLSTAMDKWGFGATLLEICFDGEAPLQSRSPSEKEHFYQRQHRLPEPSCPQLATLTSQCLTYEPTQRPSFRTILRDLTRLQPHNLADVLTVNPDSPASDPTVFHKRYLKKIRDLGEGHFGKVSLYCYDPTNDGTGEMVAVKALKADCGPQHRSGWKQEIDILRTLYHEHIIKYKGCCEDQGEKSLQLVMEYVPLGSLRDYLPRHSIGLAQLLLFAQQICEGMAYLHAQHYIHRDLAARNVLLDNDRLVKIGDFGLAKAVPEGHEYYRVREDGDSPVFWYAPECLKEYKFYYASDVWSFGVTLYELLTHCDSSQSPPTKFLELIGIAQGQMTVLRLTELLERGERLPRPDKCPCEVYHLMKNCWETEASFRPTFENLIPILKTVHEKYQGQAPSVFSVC

[4] = target: T2, TGF-beta receptor type-1 (Homo sapiens) (UniProt P36897); assay: Selectivity interaction (KinomeScan (DiscoverX)) EUB0001049a TGFBR1; settings: at 1 µM
T2 sequence (whole entry): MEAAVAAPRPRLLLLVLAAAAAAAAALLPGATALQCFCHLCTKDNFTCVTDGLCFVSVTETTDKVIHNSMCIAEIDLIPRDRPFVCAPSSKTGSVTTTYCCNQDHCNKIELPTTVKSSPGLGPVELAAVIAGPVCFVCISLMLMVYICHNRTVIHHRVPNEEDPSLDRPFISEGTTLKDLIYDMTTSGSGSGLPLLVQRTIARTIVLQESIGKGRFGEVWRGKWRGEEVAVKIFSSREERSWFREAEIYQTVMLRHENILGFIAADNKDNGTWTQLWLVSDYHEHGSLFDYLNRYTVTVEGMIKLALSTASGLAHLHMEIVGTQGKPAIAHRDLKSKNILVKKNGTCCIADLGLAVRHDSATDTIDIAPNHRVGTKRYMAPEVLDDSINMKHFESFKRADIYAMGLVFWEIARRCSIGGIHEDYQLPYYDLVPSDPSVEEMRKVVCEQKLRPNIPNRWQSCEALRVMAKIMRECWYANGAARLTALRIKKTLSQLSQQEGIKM

[5] = target: T3, Serine/threonine-protein kinase 36 (Homo sapiens) (UniProt Q9NRP7); assay: Selectivity interaction (KinomeScan (DiscoverX)) EUB0000618a STK36; settings: at 10 µM
T3 sequence (whole entry): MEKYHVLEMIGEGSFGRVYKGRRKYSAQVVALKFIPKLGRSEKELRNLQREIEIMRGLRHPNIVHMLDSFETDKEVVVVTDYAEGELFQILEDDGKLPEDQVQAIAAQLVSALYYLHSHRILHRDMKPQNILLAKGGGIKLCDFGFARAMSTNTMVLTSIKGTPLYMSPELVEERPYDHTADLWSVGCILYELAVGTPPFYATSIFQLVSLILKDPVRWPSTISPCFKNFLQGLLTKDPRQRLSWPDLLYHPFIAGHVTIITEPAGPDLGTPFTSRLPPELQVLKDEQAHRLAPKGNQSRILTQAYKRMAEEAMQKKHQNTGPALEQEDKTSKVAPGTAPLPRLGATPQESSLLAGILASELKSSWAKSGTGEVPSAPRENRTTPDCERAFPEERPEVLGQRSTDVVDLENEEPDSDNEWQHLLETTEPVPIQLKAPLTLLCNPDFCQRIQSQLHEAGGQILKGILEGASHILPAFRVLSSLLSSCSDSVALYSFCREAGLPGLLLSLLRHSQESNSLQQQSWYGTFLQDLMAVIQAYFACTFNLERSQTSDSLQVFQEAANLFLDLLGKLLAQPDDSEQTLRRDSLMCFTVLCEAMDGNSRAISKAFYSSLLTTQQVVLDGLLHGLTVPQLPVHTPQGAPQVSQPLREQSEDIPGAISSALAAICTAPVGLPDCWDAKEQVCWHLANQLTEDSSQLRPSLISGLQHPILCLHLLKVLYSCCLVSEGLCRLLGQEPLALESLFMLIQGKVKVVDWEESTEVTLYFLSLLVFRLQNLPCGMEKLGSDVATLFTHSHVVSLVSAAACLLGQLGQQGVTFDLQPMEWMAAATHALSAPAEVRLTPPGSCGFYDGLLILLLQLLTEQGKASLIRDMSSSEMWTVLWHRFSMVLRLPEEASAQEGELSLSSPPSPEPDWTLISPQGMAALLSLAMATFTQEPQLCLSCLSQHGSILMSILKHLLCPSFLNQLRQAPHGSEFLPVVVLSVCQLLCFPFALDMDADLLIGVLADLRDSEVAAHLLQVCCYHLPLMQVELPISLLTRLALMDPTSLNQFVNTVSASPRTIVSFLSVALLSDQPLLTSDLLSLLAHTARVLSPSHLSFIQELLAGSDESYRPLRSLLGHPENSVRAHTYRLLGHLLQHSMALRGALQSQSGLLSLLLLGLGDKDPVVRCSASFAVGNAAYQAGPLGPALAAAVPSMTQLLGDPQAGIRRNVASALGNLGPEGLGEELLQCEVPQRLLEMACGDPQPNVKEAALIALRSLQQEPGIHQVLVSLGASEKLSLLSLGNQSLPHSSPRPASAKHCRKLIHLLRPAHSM

Question: How did the % of engagement [1] turn out when `C=CC(=O)Nc1ccc(C(=O)Nc2[nH]nc3c2CN(C(=O)N[C@H](CN(C)C)c2ccccc2)C3(C)C)cc1` was run?
Answer: -20.7%

Question: With `CC[C@@H]1[C@H](F)C(=O)N[C@@H]1COc1nccc2cc(C(N)=O)c(OC)cc12` [ZIMLOVISERTIB] as the compound, how does the % of inhibition [2] read?
Answer: -8.7%

Question: For `COc1cc(Nc2nc(C)cc(-c3cnn4nc(OC)ccc34)n2)cc(C(F)(F)F)c1`, which % of control [3] is on record?
Answer: 90%

Question: What about the % of control [4] of the same compound?
Answer: 100%

Question: How did the % of control [5] turn out when `O[C@H]1CC[C@H](Nc2ncc3nc(Nc4c(F)cc(F)cc4F)n([C@H]4CCOC4)c3n2)CC1` was run?
Answer: 6.5%
